Patent US6930131B2, “Aryl substituted 3-ethoxy phenyl trifluoromethane sulfonamides for the treatment of non-insulin dependent diabetes mellitus (NIDDM)” (Wyeth, priority 2002, dated 2005)

Columns and labels:
[1] = system: ob/ob (C57 B1/6J) mice; experiment: Hypoglycemic effect in diabetic ob/ob mice; format: in vivo, mouse
Experimental: Hypoglycemic Effect in Diabetic OB/OB Mice
Procedure: In each study, male or female ob/ob (C57 B1/6J) mice and their mean litermates (ob/+ or +/+, Jackson Laboratories) ages 2 to 5 months (10 to 65 g) were randomized according to plasma glucose into 4 groups of 10 mice. The mice were housed 5 per cage and were maintained on normal rodent chow with water ad libitum. Mice receive compound daily by gavage (suspended in 0.5 ml of 0.5% methyl cellulose); dissolved in the drinking water; or admixed in the diet. The dose of compounds given ranges from 2.5 to 200 mg/kg body weight/day. Body weight of fed animals was measured at the beginning of each week and doses for the entire week were calculated using this weight and were expressed in terms of the active moiety of the compound. Control mice receive vehicle only. […]
Measurements: The plasma was isolated by centrifugation and the concentration of glucose was measured enzymatically on an Abbott V. P. Analyzer and the plasma concentration of insulin was determined by radioimmunoassay (Heding, 1972)
Analysis of variance followed by Dunnett's Comparison Test (one-tailed) was used to estimate the significant difference between the plasma glucose values from the control group and the individual compound treated groups (CMS SAS Release 5.18). A compound will be considered active if the difference has a p<0.05.

[2] = system: Hepatocytes Isolated and Cultured from Obese Zucker (fa/fa) Rats; experiment: Inhibition of glucose output from hepatocytes isolated and cultured from obese Zucker (fa/fa) rats; format: cell-based, rat; details: inhibition of glucose output vs glucagon stimulated cultured hepatocytes
Experimental: Inhibition of Glucose Output from Hepatocytes Isolated and Cultured from Obese Zucker (fa/fa) Rats and their Lean Controls
Culturing of Hepatocytes: Isolated hepatocytes were plated on 12 well rat-tail collagen coated plates at a cell density of 5×10(5) cells/ml (approximately 1 ml of cell suspension per well). Following a one hour attachment period in which plates were incubated in a CO2 incubator at 37 deg C. (95% O2, 5% CO2), the supernatant containing unattached hepatocytes was removed and replaced with fresh media (1 ml/well) containing 1 μM dexamethasone and 100 pM insulin. Cells were maintained at 37 deg C. for 48 hours in a 95% O2, 5% CO2 environment. At the end of the first 24 hours, the media was aspirated off of the wells and replaced with fresh media containing the same concentrations of dexamethasone and insulin as described earlier. Treatment with Drugs and Assessment of Glucose Output: Drugs were routinely added with fresh media 24 hours after the initial attachment period. Eighteen hours later, media was aspirated and 500 μl of fresh Hank's buffer, Buffer D (glucose-free) supplemented with hormones, gluconeogenic substrates and drug(s) was added to each well and incubated for 4 hours. At the end of the 4 hour incubation, media from each well was removed and assayed for glucose content using the hexokinase/glucose-6-phosphate dehydrogenase coupled assay on the Boehringer Mannheim model 911 auto analyzer. Glucose concentration was expressed as μg/ml. Three of the plates from each treated group were frozen for subsequent determination of protein content. Two plates from each treatment group were used to assess the cytotoxicity of drug(s) and other agents as determined by the MTT (tetrazolium) dye reduction method (see below).
Assessment of Cytotoxicity using MTT Dye Reduction Assay: Two plates with no insulin treatment and two plates with 10^−8 M insulin treatment were used for the MTT dye reduction assay. Following removal of media from the plates for measurement of glucose output, wells were washed once with 1 ml of Hank's buffer (0.5% BSA). Aliquots of […] of Hank's buffer (1.1% BSA) and […] MTT solution (5 mg MTT/ml in phosphate buffered saline (PBS) filtered through 0.45 micron syringe filter) were added to each well. Plates were incubated for one hour at 37 deg C. After one hour incubation, the MTT dye solution was aspirated off and […] of HCL/isopropanol solution (8 ml of 1 N HCL and 192 ml of isopropanol) was added to each well. HCL/isopropanol solution was mixed by drawing liquid into a pipetman 2 to 3 times and then carefully transferred into a 96 well flat bottom plate. The 96 well plate was read on a plate reader (UV max kinetic microplate reader, Molecular Devices) at 570 nm test wavelength and 650 nm reference wavelength. The results were expressed as % inhibition from the control (lactate and glucagon treated) well.
Protein test procedure: Three plates with no insulin treatment and three plates with 10^−8 M insulin treatment were used for protein determination. After supernatant has been removed for determination of glucose output the plates were frozen and stored at −20 deg C. until ready to assay for protein content. Prior to determination of protein the plates were defrosted at room temperature for 15 minutes. An aliquot of 1 ml 0.1 N NaOH was added to each well. Plates were incubated at 4 deg C. overnight. Solutions for measurement of protein content were mixed by pipetting the NaOH solution up and down several time with a 1 ml pipette and then transferring to a small polyethylene tube. Protein determination was based on that of the Pierce BCA protein assay protocol (Pierce cat. no. 23223). A set of protein standards (0.2, 0.4, 0.6, 0.8, and 1 mg/ml BSA) was prepared by serial dilution of 1 mg/ml bovine serum albumin with 0.1 N NaOH, and 40 μl of each standard, or control blank was pipetted into a 96-well plate in duplicate. Each unknown protein sample (40 μl) was tested in triplicate. […]

[3] = system: ob/ob (C57 B1/6J) mice; details: reference compound, 20 mg/kg/day; cited from earlier work

Compound	melting point [°C]	Reduction in Plasma Glucose Day 1 (6 hr) p.o. ([1]; 5 mg/kg p.o.) [%]	Reduction in Plasma Glucose Day 3 (6 hr) p.o. ([1]; 5 mg/kg p.o.) [%]	IC50 ([2]; Rattus norvegicus, Hepatocyte) [µM]	IC50 [2] [µM]	other results
O=S(=O)(Nc1cccc(CCOCc2ccc(-c3ccc(Cl)cc3)cc2F)c1)C(F)(F)F [Example 11, N-{3-[2-(4′-Chloro-3-fluoro-biphenyl-4-ylmethoxy)-ethyl]-phenyl}-C,C,C-trifluoro methane sulfonamide]					10	
O=S(=O)(Nc1cccc(CCOCc2ccc(-c3ccc(F)cc3)cc2Cl)c1)C(F)(F)F [Example 22]					2.2	
O=S(=O)(Nc1cccc(CCOCc2ccc(-c3ccc(Cl)cc3)cc2Cl)c1)C(F)(F)F [Example 23, N-{3-[2-(3-Chloro-4′-chloro-biphenyl-4-ylmethoxy)-ethyl]-phenyl}-C,C,C-trifluoro methane sulfonamide]		−37	−37		1.7	
COc1cc(-c2ccc(Cl)cc2)ccc1COCCc1cccc(NS(=O)(=O)C(F)(F)F)c1 [Example 26, N-{3-[2-(4′-Chloro-3-methoxy-biphenyl-4-ylmethoxy)-ethyl]-phenyl}-C,C,C-trifluoro methane sulfonamide]					2.3	Reduction in Plasma Glucose Day 1 (6 hr) p.o. ([1]; 20 mg/kg p.o.): −20%; Reduction in Plasma Glucose Day 3 (6 hr) p.o. ([1]; 20 mg/kg p.o.): +1
O=S(=O)(Nc1cccc(CCOCc2csc(-c3ccc(Cl)cc3)n2)c1)C(F)(F)F [Example 53, N-(3-{2-[2-(4-Chloro-phenyl)-thiazol-4-ylmethoxy]-ethyl}-phenyl)-C,C,C-trifluoro-methanesulfonamide]	114 to 116			10		Reduction in Plasma Glucose Day 1 (6 hr) p.o. ([1]; 10 mg/kg p.o.): −36%; Reduction in Plasma Glucose Day 3 (6 hr) p.o. ([1]; 10 mg/kg p.o.): −26%
O=S(=O)(Nc1cccc(CCOCc2csc(-c3ccc(F)c(Cl)c3)n2)c1)C(F)(F)F [Example 56, N-(3-{2-[2-(3-Chloro-4-fluoro-phenyl)-thiazol-4-ylmethoxy]-ethyl}-phenyl)-C,C,C-trifluoro-methanesulfonamide]		−16	−26	15		
O=C(O)c1ncccc1S [Na-Mercaptopicolinic acid, reference compound]					45	
sodium metavanadate						lowering in plasma glucose [3]: significant lowering in plasma glucose

Now from value to compound, other results behind:

melting point [°C]	Compound	Reduction in Plasma Glucose Day 1 (6 hr) p.o. ([1]; 5 mg/kg p.o.) [%]	Reduction in Plasma Glucose Day 3 (6 hr) p.o. ([1]; 5 mg/kg p.o.) [%]	IC50 ([2]; Rattus norvegicus, Hepatocyte) [µM]	IC50 [2] [µM]	other results
98 to 100	O=S(=O)(Nc1cccc(CCOCc2ccc(-c3ccc(C(F)(F)F)cc3)cc2)c1)C(F)(F)F [Example 2, C,C,C-trifluoro-N-{3-[2-(4′-trifluoromethyl-biphenyl-4-ylmethoxy)-ethyl]-phenyl}-methanesulfonamide]	−8	−34			
74 to 75	O=S(=O)(Nc1cccc(CCOCc2ccc(-c3ccc(Cl)c(Cl)c3)cc2)c1)C(F)(F)F [Example 6, N-{3-[2-(3′,4′-Dichloro-biphenyl-4-ylmethoxy)-ethyl]-phenyl}-C,C,C-trifluoro-methanesulfonamide]	−16	−24	2.3		
69 to 70	O=S(=O)(Nc1cccc(CCOCc2ccc(-c3ccc(Cl)cc3)cc2)c1)C(F)(F)F [Example 7, N-{3-[2-(4′-Chloro-biphenyl-4-ylmethoxy)-ethyl]-phenyl}-C,C,C-trifluoromethane sulfonamide]	−8	−22	2.5		
89 to 90	CC(C)(C)c1ccc(-c2ccc(COCCc3cccc(NS(=O)(=O)C(F)(F)F)c3)c(F)c2)cc1 [Example 19, N-{3-[2-(4′-tert-Butyl-3-fluoro-biphenyl-4-ylmethoxy)-ethyl]-phenyl}-C,C,C-trifluoro-methanesulfonamide]			8		
70 to 71	COc1ccc(-c2cc(COCCc3cccc(NS(=O)(=O)C(F)(F)F)c3)ccc2F)cc1 [Example 42, C,C,C-Trifluoro-N-{3-[2-(6-fluoro-4′-methoxy-biphenyl-3-yl-methoxy)-ethyl]-phenyl}-methanesulfonamide]					Reduction in Plasma Glucose Day 1 (6 hr) p.o. ([1]; 10 mg/kg p.o.): −14%; Reduction in Plasma Glucose Day 3 (6 hr) p.o. ([1]; 10 mg/kg p.o.): −14%
110 to 112	CC(C)(C)c1ccc(-c2nc(COCCc3cccc(NS(=O)(=O)C(F)(F)F)c3)cs2)cc1 [Example 43, N-(3-{2-[2-(4-tert-Butyl-phenyl)-thiazol-4-ylmethoxy]-ethyl}-phenyl)-C,C,C-trifluoro-methanesulfonamide]			6.9		
88 to 90	COc1cc(COCCc2cccc(NS(=O)(=O)C(F)(F)F)c2)ccc1-c1ccc(Cl)cc1 [Example 88, N-{3-[2-(4′-Chloro-2-methoxy-biphenyl-4-ylmethoxy)-ethyl]-phenyl}-C,C,C-trifluoromethane sulfonamide]			4		Reduction in Plasma Glucose Day 1 (6 hr) p.o. ([1]; 25 mg/kg p.o.): −71; Reduction in Plasma Glucose Day 3 (6 hr) p.o. ([1]; 25 mg/kg p.o.): −29
